# Several values for one entry are separate records, joined by “and”; a condition that tells them apart may be missing. Identical values can stand only once.
# Tested on: mouse embryonic day (e) 10 dorsal pancreatic buds
# Experiment: Culture of e10 dorsal pancreatic bud explants with or without RA, endocrine cells scored by immunohistochemistry
# Format: cell-based
# Text: From mating between C57BL/6 (wild-type) mice, pregnant females were sacrificed ten days after the appearance of a vaginal plug, and embryos collected. The ten-day-old embryos were dissected in L15 medium (Gibco) using forceps and tungsten needles. The L15 medium is […]
# At this embryonic stage the dorsal pancreatic bud can be seen as a round structure forming from the gut endoderm that can be dissected out from the surrounding tissues (see FIG. 3). Using a mouth pipette individual isolated pancreatic buds were placed on 0.4 μm, pore 3,28 12 mm Millicell-CM PICM01250 filters (Millipore) that were subsequently placed in a twenty-four well plate (Costar) where each well contained 400 μl culture medium, consisting of DMEM-glutamax1 (Gibco), 1×N2-supplement (Gibco) and PEST (Gibco).
# The explants were cultured for six days in 37° C. and 5% CO2 in culture medium alone (control explants) or with 25 nM all-trans retinoic acid (Sigma) added to the medium.
# After six days of culture the explants were washed twice in PBS, fixated in 4% PFA in PBS for 25 minutes followed by two more washes in PBS. Using a small pair of scissors the filter was cut around the explant and the filter piece with the explant attached to it was placed in Tissue Tek O.C.T. Compound 4583 (Sakura). In the Tissue Tek the explant was gently removed from the filter using tungsten needles. A small drop of Tissue Tek was applied on a glass slide (Menzel) and the explant was placed in the drop using forceps and tungsten needles. The glass slides were put on dry ice to freeze the drops and were then stored in −80° C.
# The frozen explants were sectioned using a Cryostat into […] thick sections that were collected on Superfrost Plus glass slides (Menzel). All explants from one experiment were put on the same slides. The slides were placed in a hybridisation chamber and blocked with blocking solution, TBST (50 mMT nsHCl, pH7.4, 150 mM MaCl, 0,1% Triton X-100)+10% FCS (fetal calf serum), for one hour. After blocking, primary antibodies diluted in fresh blocking solution were added and the slides were incubated overnight at 4° C. The following primary antibodies were used: guinea-pig α insulin (Linco) diluted 1/200, rabbit α glucagon (Euro Diagnostica) diluted 1/1000 and rabbit anti-ngn3 (raised against a GST-ngn3 fusion protein by AgriSeraAB) diluted 1/400. The slides were washed 3×5 minutes in TBST before incubation with secondary antibodies; a guinea-pig alexa488 (Molecular Probes) diluted 1/1000 and α rabbitCy3 (Jackson) diluted 1/400, for one hour in room temperature. The slides were then washed again 3×5 minutes in TBST before they were mounted using Vectashield with DAPI (Vector). The slides were analysed using a Nikon fluorescence microscope. The cells stained for insulin and glucagos respectively were counted and divided by the total number of cells that was counted using the DAPI staining which stains DNA i.e. every cell nucleus.
# To investigate a role for RA in pancreatic cell differentiation mouse embryonic day (e) 10 dorsal pancreatic buds, which primarily contain pancreatic stem cells and very few differentiated pancreatic cells, were cultured in serum free media with or without RA for six days. The in vitro cultured explants were then scored for the appearance of endocrine cells expressing glucagon and insulin by immunohistochemistry using antibodies specific for glucagon and insulin. In vitro cultivation in media alone generated a few glucagon-(˜10% of total cells) and insulin-positive (˜5% of total cells) cells but the majority of cells were of non-endocrine origin (FIGS. 1 A-C and data not shown). […] Moreover, RA preferentially stimulated the differentiation of insulin-positive cells, which increased ˜4.5 fold, whereas glucagon-positive cells increased only ˜1,5 fold (FIG. 1D-F).
smiles,measurement,setting,value
"CC1=C(/C=C/C(C)=C/C=C/C(C)=C/C(=O)O)C(C)(C)CCC1 [RA, all-trans retinoic acid]",increase in the number of ngn3-positive cells/total number of cells,"25 nM RA, 2 and 4 days of culture, versus medium alone",five-fold increase
same,effect on the number of glucagon cells,"25 nM RA, versus medium alone, N=6",No significant effect
same,increase in the number of insulin positive cells/total number of cells,"25 nM all-trans RA, six days of culture, versus explants in medium alone",> 3 fold and ~4.5 fold
same,increase in endocrine cells,"25 nM all-trans RA, six days, versus explants cultured in media alone",more than 2 fold
same,increase in glucagon-positive cells,"25 nM all-trans RA, six days, versus media alone","~1,5 fold"
same,endocrine cells (glucagon- and insulin-positive) of total cells,"25 nM all-trans RA, six days, media alone ~15%",~37%
